Reference: patent US20240002786A1, “SHRINKABLE HYDROGELS” (THE BRIGHAM AND WOMEN'S HOSPITAL, INC., priority 2020, published 2024)

Test: Hydrogel disc shrinking capacity with polycation solutions
Procedure: Hydrogels were made from gelMA A or B, fish GelMA, and/or HAMA and were prepared at different concentrations. GelMA formulations were dissolved whilst stirring in MilliQ water at 37° C. for 2 h. HAMA formulations were dissolved into MilliQ water overnight under agitation. Both HAMA and gelMA solutions were supplemented with 0.1 wt % Irgacure 2959 (Sigma-Aldrich) prior to UV crosslinking. The prepared polymer solutions were cast in circular PDMS molds (diameter: 4.5 cm) and subsequently UV-irradiated (methacrylate conversion was determined to be >95%). Subsequently, a biopsy punch (Integra Miltex, various diameters) was used to cut cylindrical hydrogels of 2 mm in height.
Shrinking agents were dissolved overnight in either phosphate-buffered saline (170 mM of ionic strength, pH 7.4) or diluted or NaCl-supplemented phosphate buffer (17-700 mM ionic strengths, pH 7.4) for up to 2.0 wt %. Cut hydrogels were initially measured using Vernier calipers (standard error=30 μm) to determine their volumes and subsequently incubated in the various shrinking agent solutions (volume: 2 mL, n=3 for every condition). Unless stated otherwise, incubation was done at room temperature. Hydrogel diameter and height were monitored either over time to determine hydrogel shrinking kinetics or after full dehydration had occurred to determine maximum shrinking capacity (typically after 12 h).

lysozyme
hydrogel shrinking (isotonic conditions (170 mM of ionic strength and pH 7.4)): did not shrink at all | hydrogel shrinking (reduced ionic strength (85 mM, pH 7.4)): hydrogel shrinking was observed
